Assay [1] relates to microorganisms. In words: Peptide activities: targeting/binding, antimicrobial, growth or phenotype altering (Tables 7, 8). The format is cell-based. The note with it: peptides having multiple activities.
For assay [2], the system named is microorganisms. In words: Morphology, biofilm and growth disrupting peptides (Table 5). Format: cell-based. On the set-up: key: A: Peptide aggregates; B: Less hyphal formation; Clumps; Diffuse clumps and small polyps; F: Diffuse growth; H: Thin; I: Growth inhibition; Microcolony formation; Rippled; Small polyps; Thick; W: Halo formation on top, microlonies on bottom. The source says:
In certain embodiments peptides that induce alterations in phenotype or other biological activities can also be used as antimicrobial effector moieties.

The test system of assay [3] is microorganisms. In words: Targeting peptide binding to target microorganisms (Tables 3, 10, 12). The note with it: microorganism(s) the targeting peptide binds; binding in aqueous buffers varied with peptide solubility, preferably 1x PBS.

Entries after “also recorded” stand apart in the source; their conditions may differ.

As to “PF-584: peptide having multiple activities (chain 1 SYIKNLSNQKFLIAF; chain 2 SYIKNLSNQKFLIAF; Peptide with targeting and/or antimicrobial activity)”, the Activities result in assay [1] was “G B”. Besides, the “Organism, effect” value in assay [2] (C. jejuni) is listed as “C. jejuni (D)”; in assay [2] (E. coli), “E. coli (C)”; in assay [2] (E. faecalis), “E. faecalis (D)”; in assay [2] (MRSA) it was “MRSA (D)”; in assay [2] (S. epidermidis), “S. epidermidis (C)”; in assay [2] (S. pneumoniae) it was “S. pneumoniae (D)”. The “Target(s)” value in assay [3] was “S. epidermidis and M. luteus and P. mirabilis and C. albicans and MRSA and S. pneumoniae and E. faecalis and C. jeikeium”.
On to “PF-585: peptide having multiple activities (chain 1 DYNHLLNVVQDWVNTN; chain 2 DYNHLLNVVQDWVNTN; Peptide with targeting and/or antimicrobial activity)”, for which the Activities entry in assay [1] was “G B”. The “Organism, effect” value in assay [2] (C. jejuni) was “C. jejuni (R)”; in assay [2] (E. faecalis), “E. faecalis (A)”; in assay [2] (MRSA) it was “MRSA (S)”; in assay [2] (S. epidermidis), “S. epidermidis (S)”; in assay [2] (S. pneumoniae), “S. pneumoniae (R)”. Moreover, the “Target(s)” value in assay [3] was “S. epidermidis and E. coli and C. albicans and MRSA and S. pneumoniae and C. jeikeium”.
With “PF-588: peptide having multiple activities (chain 1 ESVEAIKAKAIK; chain 2 ESVEAIKAKAIK; Peptide with targeting and/or antimicrobial activity)”, the Activities entry in assay [1] was “G B”. Further, the “Organism, effect” value in assay [2] (E. faecalis) is given as “E. faecalis (A)”. Further, the “Target(s)” value in assay [3] is listed as “S. epidermidis; also recorded: E. coli; also recorded: C. albicans; also recorded: E. faecalis; also recorded: C. jeikeium; also recorded: C. jejuni”.
Take “PF-590: peptide having multiple activities (chain 1 YYQAKLFPLL; chain 2 YYQAKLFPLL; Peptide with targeting and/or antimicrobial activity)”: the Activities result in assay [1] is “G B”. Also, the “Organism, effect” value in assay [2] (C. jejuni) is “C. jejuni (R)”. Besides, in assay [3], the “Target(s)” value is on record as “S. epidermidis; also recorded: M. luteus; also recorded: E. coli; also recorded: E. faecalis; also recorded: C. jeikeium”.
As to “PF-593: peptide having multiple activities (chain 1 MEISTLKKEKLHVKDELSQYLANYKK; chain 2 MEISTLKKEKLHVKDELSQYLANYKK; Peptide with targeting and/or antimicrobial activity)”, the Activities entry in assay [1] is given as “G B”. Also, the “Organism, effect” value in assay [2] (E. faecalis) is reported as “E. faecalis (A)”. In addition, in assay [3], the “Target(s)” value is recorded as “C. jeikeium”.
The corresponding values for “PF-594: peptide having multiple activities (chain 1 IVSAIV; chain 2 IVSAIV; Peptide with targeting and/or antimicrobial activity)” are “G B”, “E. faecalis (C)” and “C. jeikeium”.
Consider “PF-598: peptide having multiple activities (chain 1 MKFMLEVRNKAISAYKEITRTQI; chain 2 MKFMLEVRNKAISAYKEITRTQI; Peptide with targeting and/or antimicrobial activity)”, for which the Activities result in assay [1] is recorded as “G B”. In addition, the “Organism, effect” value is “C. jejuni (R)” in assay [2] (C. jejuni); “E. coli (C)” in assay [2] (E. coli); “E. faecalis (R)” in assay [2] (E. faecalis); “MRSA (D)” in assay [2] (MRSA); “S. epidermidis (R)” in assay [2] (S. epidermidis); “S. pneumoniae (R)” in assay [2] (S. pneumoniae). In addition, in assay [3], the “Target(s)” value was “S. epidermidis and M. luteus and P. mirabilis and P. aeruginosa and C. albicans and MRSA and S. pneumoniae and C. jeikeium”.
Take “PF-599: peptide having multiple activities (chain 1 LFEIFKPKH; chain 2 LFEIFKPKH; Peptide with targeting and/or antimicrobial activity)”: in assay [1], the Activities result is reported as “G B”. For the same substance, the “Organism, effect” value is “C. jejuni (R)” in assay [2] (C. jejuni); “E. faecalis (A)” in assay [2] (E. faecalis); “MRSA (C)” in assay [2] (MRSA); “S. epidermidis (M)” in assay [2] (S. epidermidis); “S. pneumoniae (R)” in assay [2] (S. pneumoniae). The “Target(s)” value in assay [3] is “S. epidermidis and P. mirabilis and E. coli and C. albicans and MRSA and S. pneumoniae and C. jeikeium”.
“PF-601: peptide having multiple activities (chain 1 YRVTVKALE; chain 2 YRVTVKALE; Peptide with targeting and/or antimicrobial activity)”: the Activities entry in assay [1] is recorded as “G B”. For the same substance, the “Organism, effect” value in assay [2] (C. jejuni) was “C. jejuni (A)”; in assay [2] (E. faecalis), “E. faecalis (A)”. Further, the “Target(s)” value in assay [3] was “C. jeikeium”.
As to “PF-602: peptide having multiple activities (chain 1 LEKEKKEYIEKLFKTK; chain 2 LEKEKKEYIEKLFKTK; Peptide with targeting and/or antimicrobial activity)”, the Activities result in assay [1] was “G B”. Further, the “Organism, effect” value in assay [2] (E. faecalis) is recorded as “E. faecalis (A)”. Besides, the “Target(s)” value in assay [3] was “P. mirabilis; also recorded: C. jeikeium”.
On the same counts, the results for “PF-604: peptide having multiple activities (chain 1 LMEQVEV; chain 2 LMEQVEV; Peptide with targeting and/or antimicrobial activity)” are “G B”, “E. faecalis (A)” and “S. epidermidis; also recorded: C. albicans; also recorded: C. jeikeium”.
“PF-607: peptide having multiple activities (chain 1 YIESDPRKFDYIFGAIRDH; chain 2 YIESDPRKFDYIFGAIRDH; Peptide with targeting and/or antimicrobial activity)”: in assay [1], the Activities result is listed as “G B”. Further, the “Organism, effect” value in assay [2] (C. jejuni) is “C. jejuni (R)”; in assay [2] (E. faecalis), “E. faecalis (A)”; in assay [2] (MRSA), “MRSA (S)”; in assay [2] (S. epidermidis) it was “S. epidermidis (M)”; in assay [2] (S. pneumoniae), “S. pneumoniae (R)”. Further, the “Target(s)” value in assay [3] is “S. epidermidis and P. mirabilis and E. coli and MRSA and S. pneumoniae and C. jeikeium”.
For the substance “PF-609: peptide having multiple activities (chain 1 TEIKLDNNEYLVLNLDDILGILK; chain 2 TEIKLDNNEYLVLNLDDILGILK; Peptide with targeting and/or antimicrobial activity)”, in assay [1], the Activities entry is given as “G B”. In addition, the “Organism, effect” value in assay [2] (C. jejuni) is on record as “C. jejuni (R)”; in assay [2] (E. faecalis) it was “E. faecalis (A)”; in assay [2] (MRSA), “MRSA (C)”; in assay [2] (S. pneumoniae), “S. pneumoniae (R)”. In assay [3], the “Target(s)” value is given as “P. mirabilis; also recorded: E. coli; also recorded: S. pneumoniae”.
On to “PF-613: peptide having multiple activities (chain 1 ADEFAKL; chain 2 ADEFAKL; Peptide with targeting and/or antimicrobial activity)”, for which the Activities result in assay [1] is on record as “G B”. Further, the “Organism, effect” value in assay [2] (E. faecalis) is on record as “E. faecalis (A)”; in assay [2] (MRSA), “MRSA (C)”; in assay [2] (S. epidermidis), “S. epidermidis (R)”. For the same substance, the “Target(s)” value in assay [3] is “C. jeikeium”.
Take “PF-614: peptide having multiple activities (chain 1 GLDIYA; chain 2 GLDIYA; Peptide with targeting and/or antimicrobial activity)”: in assay [1], the Activities entry was “G B”. Besides, the “Organism, effect” value in assay [2] (C. jejuni) is “C. jejuni (R)”; in assay [2] (E. faecalis) it was “E. faecalis (A)”; in assay [2] (S. epidermidis) it was “S. epidermidis (M)”; in assay [2] (S. pneumoniae), “S. pneumoniae (R)”. Also, the “Target(s)” value in assay [3] is recorded as “S. epidermidis; also recorded: E. coli; also recorded: C. jeikeium”.
Take “PF-616: peptide having multiple activities (chain 1 IVFVVTKEKK; chain 2 IVFVVTKEKK; Peptide with targeting and/or antimicrobial activity)”: the Activities entry in assay [1] was “G B”. The “Organism, effect” value is “E. faecalis (A)” in assay [2] (E. faecalis) and “S. epidermidis (R)” in assay [2] (S. epidermidis). Also, the “Target(s)” value in assay [3] is recorded as “C. jeikeium”.
For “PF-617: peptide having multiple activities (chain 1 PMNAAEPE; chain 2 PMNAAEPE; Peptide with targeting and/or antimicrobial activity)”, the Activities result in assay [1] is “G B”. For the same substance, the “Organism, effect” value in assay [2] (C. albicans) is “C. albicans (H)”; in assay [2] (E. faecalis), “E. faecalis (H)”; in assay [2] (S. pneumoniae), “S. pneumoniae (I)”. The “Target(s)” value in assay [3] is given as “P. aeruginosa; also recorded: C. albicans”.
For the substance “PF-621: peptide having multiple activities (chain 1 PPSSFLV; chain 2 PPSSFLV; Peptide with targeting and/or antimicrobial activity)”, the Activities result in assay [1] is “G B”. Also, the “Organism, effect” value was “E. faecalis (H)” in assay [2] (E. faecalis) and “S. pneumoniae (I)” in assay [2] (S. pneumoniae). Further, in assay [3], the “Target(s)” value was “S. epidermidis; also recorded: C. albicans”.

The record behind these values is US20110039763A1, “TARGETED ANTIMICROBIAL MOIETIES” (C3 JIAN, INC., priority 2009, published 2011).
